Assays:
[1] = molar basis, compared with RDV; cited from earlier work
SARS-CoV-2 Fluc = experiment: microbe, parasite or virus in culture; assay type: cell-based; settings: Severe acute respiratory syndrome coronavirus 2, NHBE, in Homo sapiens, 24 h
SARS-CoV-2 nLUC = experiment: microbe, parasite or virus in culture; assay type: cell-based; settings: Severe acute respiratory syndrome coronavirus 2
WT SARS-CoV-2 = assay type: cell-based
[2] = Plasma pharmacokinetics after oral administration in uninfected BALB/c mice; assay type: in vivo

Row | SMILES | efficiency at generating lung triphosphate, less than RDV [1] | EC50 (SARS-CoV-2 Fluc) [nM] | EC50 (SARS-CoV-2 nLUC) [nM] | infectious virus production / viral titers (WT SARS-CoV-2) | maximal plasma concentrations (Cmax) and exposures (AUC0–24h) ([2]; GS-441524 after single oral GS-621763, 5 vs 20 mg/kg) | NHC plasma exposures ([2]; after oral MPV 30 mg/kg or 100 mg/kg BID, BALB/c mice)
1 | N#C[C@@]1(c2ccc3c(N)ncnn23)O[C@H](CO)[C@@H](O)[C@H]1O [GS-441524] | at least 10 fold | 2450 | 3300 | significant and dose-dependent reduction in viral titers | Dose proportional increases | 
2 | O=c1nc(NO)ccn1[C@@H]1O[C@H](CO)[C@@H](O)[C@H]1O [NHC, β-D-N4-hydroxycytidine] |  |  |  |  |  | dose proportional increases
3 | CCC(CC)COC(=O)[C@H](C)N[P@](=O)(OC[C@H]1O[C@@](C#N)(c2ccc3c(N)ncnn23)[C@H](O)[C@@H]1O)Oc1ccccc1 [RDV, remdesivir] |  | 37.1 | 280 | significant and dose-dependent reduction in viral titers |  | 
